Measured values reported in BindingDB's records for doi:10.1016/j.bmcl.2007.09.043 (Amgen, 2007).

Target: T1, N-formyl peptide receptor 2 (Homo sapiens, UniProt P25090)
T1 sequence (P25090 whole entry): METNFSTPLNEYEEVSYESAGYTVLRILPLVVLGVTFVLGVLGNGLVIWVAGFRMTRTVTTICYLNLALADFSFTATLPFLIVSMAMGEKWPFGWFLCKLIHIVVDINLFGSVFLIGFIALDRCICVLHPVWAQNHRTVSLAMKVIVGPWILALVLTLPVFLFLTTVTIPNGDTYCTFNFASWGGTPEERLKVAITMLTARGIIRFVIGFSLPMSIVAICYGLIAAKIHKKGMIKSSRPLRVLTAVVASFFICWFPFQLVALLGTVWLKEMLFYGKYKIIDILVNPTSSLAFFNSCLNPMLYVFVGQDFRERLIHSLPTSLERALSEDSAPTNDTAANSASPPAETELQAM
Assay: hFPRL1-Mediated Ca2+ Mobilization Assay
Settings: pH 7.2; 37 °C
Method: hFPRL 1 activity was assayed using an aequorin-based bioluminescence assay (Ca2+ flux). EC50 values have been determined by Ca2+ flux in CHO recombinant cells co-expressing hFPRL1, G (alpha15) protein, and aequorin.

EC50: 6.39 µM
Structure (SMILES): COc1ccc2[nH]c(C(=O)N3CCC(n4c(=O)[nH]c5ccccc54)CC3)cc2c1 [1-{1-[(5-methoxy-1H-indol-2-yl)carbonyl]piperidin-4-yl}-1,3-dihydro-2H-benzimidazol-2-one]
